This is an account of results in US6287840A (Axys Pharmaceuticals, Inc., priority 1999, dated 2001).

Read-outs that look alike come from different tables or passages of the source.

In one assay the test system is Female Lewis rats. The assay is described as follows: Mycobacterium butyricum induced arthritis in rats, compound in chow, 28 days. The class given is in vivo, rat. The protocol:
At day zero, Female Lewis rats (5/group), 5 weeks old, were given intradermal injection into the base of the tail of Mycobacterium butyricum in 0.1 ml of light mineral oil. The animals were provided Teklad (4%) rat chow mixed with (treated groups) or without compound (control group) and water ad libilum. The compounds used were Mu-Phe-HphVSPh, Mu-Leu-HphVSPh, Mu-Tyr-HphVSPh, Mu-Phe-Lys(ε-Z)VSPh, Mu-Phe-LysVSPh-HBr. The compounds were given to three groups at 3, 10, and 30 mg/kg/day, respectively. The following parameters were noted: biweekly weights and biweekly joint evaluations by the following scoring system: paw swelling 0=no edema, 1=slight edema of small digital joints, 2=edema of the digital joints and foot pad, 3=gross edema of the entire foot pad below that ankle or elbow, 4=gross edema of the entire foot pad including the ankle and elbow joint Erythema was scored as: 0=normal, 1=pink, 2=red, 3=deep violaceous. The evaluators were blinded as to treatment groups.
After 28 days the animals were killed and the hind paws and knees were removed and fixed in 4% paraformaldehyde. […] Joint histopathology scores were calculated by the following method: two sections of each joint were read for synovial cell proliferation, cartilage erosion, bone erosion, fibroproliferative pannus, diffuse inflammatory synovitis, and synovial vasculitis: 0=normal, 1=mild, 2=moderate, 3=and severe. […]

Another assay deals with cruzain, from T. cruzi (Trypanosoma cruzi, UniProt P25779). The assay is described as follows: Inhibition of cruzain, as for cathepsin L. The class given is biochemical. The following applies: for k/KI (kirr/KI): values without asterisk. In a few lines:
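Run as for cathepsin L with 1 nM cruzain in 50 mM phosphate pH […], 2.5 mM DTT, 2.5 mM EDTA, 5 μM Z-Phe-Arg-AMC, at 25 °C, inhibitors 30-0.001 μM; fluorescence (ex 380/em 460 nm) followed continuously. kobs fitted from progress curves and kobs/[I] reported; selected compounds gave kirr, KI, kirr/KI, with KI corrected by (1+[S]/Km).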

The target in another assay is T1, Cloned cathepsin S (Homo sapiens, UniProt P25774).
T1 construct: made in house
Kind of assay: Inhibition of cathepsin S, Z-Val-Val-Arg-AMC fluorescence progress curves. The class given is biochemical. The following applies: for Ki: corrected for substrate; for k/KI (kirr/KI): values without asterisk, 25° C., pH 6.5. In short, it runs like this: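 Progress curves at 25 °C in 100 mM phosphate pH 6.5, 2.5 mM DTT, 2.5 mM EDTA, 0.01% Triton, enzyme <1 nM, 10 μM substrate, inhibitors 30-0.001 μM; AMC fluorescence ex 380/em 460 nm. kobs from nonlinear fits gave kobs/[I]; selected compounds yielded kirr, KI (substrate-corrected), kirr/KI.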

For assay [1], the system named is human malarial parasite Plasmodium falciparum. Kind of assay: In vitro protease activity of malarial parasite, substrate Z-Phe-Arg-AMC. The class given is biochemical. The settings on record: cells printed in nM; read-out: P. falciparum IC50 (human). The source says: (§1) The following table summarizes the comparative IC50 values for selected cysteine protease inhibitors against the human malarial parasite Plasmodium falciparum and the mouse malarial parasite Plasmodium vinckei. The substrate used to measure in vitro protease activity was Z-Phe-Arg-AMC.

Assay [2] relates to mouse malarial parasite Plasmodium vinckei. The assay is described as above. The assay is classed as biochemical. The settings on record: cells printed in nM; read-out: P. vinckei IC50 (murine).
Text: as §1

Assay [3] deals with Leishmania donovani amastigote infected mouse peritoneal macrophages. Kind of assay: In vitro antiprotozoal activity, Leishmania donovani. Also on record: key to percentage inhibition, L. donovani: the term "T" indicates the molecule to have displayed cytotoxicity. The assay is classed as cell-based. The protocol: In this table, the in vitro antiprotozoal activities of the indicated compounds were measured as percentage inhibition of Leishmania donovani amastigote infecteda mouse peritoneal macrophages, Trypanosoma cruzi amastigote infected macrophages, and Trypanosoma brucei extracellular bloodstream forms.

The next assay deals with U87MG. Kind of assay: Matrigel barrier migration assay, U87MG. Details: dose or concentration left out as unconfirmed. The class given is cell-based, human. The procedure: Two permanent human glioma cell lines (U87MG and U251MGn) and a well characterized low passage primary culture derived from a CB-positive glioblastoma (HF66) were used to assess the migratory behavior in the Matrigel barrier migration assay in the presence of graded concentrations of four compounds.
Using the Matrigel assay, Mu-Leu-HphVSPh, Mu-Tyr-HphVSPh, Mu-Phe-HphVSPh, and Mu-Tyr(I2)-HphVSPh (all at 10 mM) inhibited U251MGn by 67, 56, 29, & 20% respectively, while the U87MG cells were inhibited 53, 75, 63, & 56% respectively. The primary culture HF66 cells were inhibited only 10% by these compounds at the same concentration.

Chain of cruzain, from T. cruzi (P25779 123-337 limits assumed): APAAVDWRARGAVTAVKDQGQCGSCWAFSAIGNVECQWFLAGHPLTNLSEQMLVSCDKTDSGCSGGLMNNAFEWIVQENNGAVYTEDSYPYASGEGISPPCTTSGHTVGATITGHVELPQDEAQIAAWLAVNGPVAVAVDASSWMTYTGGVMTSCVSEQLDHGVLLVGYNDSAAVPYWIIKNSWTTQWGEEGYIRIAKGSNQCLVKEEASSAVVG
T1 sequence (P25774 115-331): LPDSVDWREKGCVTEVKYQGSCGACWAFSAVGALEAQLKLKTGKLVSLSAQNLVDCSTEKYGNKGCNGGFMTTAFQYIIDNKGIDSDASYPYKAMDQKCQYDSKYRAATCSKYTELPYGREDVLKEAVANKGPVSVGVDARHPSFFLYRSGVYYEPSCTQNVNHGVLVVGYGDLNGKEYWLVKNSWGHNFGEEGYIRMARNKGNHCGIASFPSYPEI

The term Ki denotes a dissociation constant, usually derived from enzyme kinetics or from competition with a known ligand. In general, IC50 refers to the concentration needed to halve the response being measured. On to `CC(C)C[C@H](NC(=O)N1CCOCC1)C(=O)N[C@H](/C=C/S(=O)(=O)c1ccccc1)CCc1ccccc1` [Mu-Leu-HphVSPh, (S)-(E)-3-(4-morpholinecarbonylleucyl)amino-5-phenyl-1-phenylsulfonyl-1-pentene], for which, in the assay with Female Lewis rats (high dose), the “bone and cartilage destruction” value is “reduction in bone and cartilage destruction”. Besides, the inhibition constant (Ki) worked out at 520 nM on cruzain, from T. cruzi and 5.9 nM at Cloned cathepsin S. The kirr at cruzain, from T. cruzi stood at 0.11 s⁻¹; on Cloned cathepsin S, 0.16 s⁻¹. Besides, the “k/KI (kirr/KI)” value at cruzain, from T. cruzi is listed as 213,000 M^-1 sec^-1; on Cloned cathepsin S, 26,300,000 M^-1 sec^-1. The figures for the IC50 in assay [1] and in assay [2] were 3 nM and 200 nM, respectively. Further, the “percentage inhibition, L. donovani” value in assay [3] (3 uM) was 4.6%; in assay [3] (10 uM) it was 0%; in assay [3] (30 uM) it was 15.3%; in assay [3] (90 uM) it was “T”. For the same molecule, the “inhibition of U87MG migration” value in the assay on U87MG worked out at 53%.
As for `O=C(N[C@H](/C=C/S(=O)(=O)c1ccccc1)CCc1ccccc1)C(Cc1ccccc1)NC(=O)N1CCOCC1` (stereo partly drawn) [Mu-Phe-HphVSPh, (S)-(E)-3-(4-morpholinecarbonyl-phenylalanyl)amino-5-phenyl-1-phenylsulfonyl-1-pentene], the “effect on all scores (paw swelling, erythema, joint histopathology)” value in the assay with Female Lewis rats (3, 10, and 30 mg/kg/day in chow, 28 days) was “dose dependent beneficial effect on all scores”. Besides, the Ki on cruzain, from T. cruzi was 3200 nM; on Cloned cathepsin S, 11 nM; at Cloned cathepsin S (listed as Mu-Phe-Hph-VSPh), 23 nM. Besides, the kirr on cruzain, from T. cruzi was 0.43 s⁻¹; on Cloned cathepsin S it was 0.085 s⁻¹; at Cloned cathepsin S (listed as Mu-Phe-Hph-VSPh) it was 0.15 s⁻¹. The “k/KI (kirr/KI)” value is listed as 134,000 M^-1 sec^-1 at cruzain, from T. cruzi; 7,700,000 M^-1 sec^-1 at Cloned cathepsin S; 6,500,000 M^-1 sec^-1 on Cloned cathepsin S (listed as Mu-Phe-Hph-VSPh). In addition, the IC50 in assay [1] amounted to 80 nM; in assay [2], 50 nM. Besides, the “percentage inhibition, L. donovani” value is listed as 0% in assay [3] (3 uM), 0% in assay [3] (10 uM), 9.4% in assay [3] (30 uM) and “T” in assay [3] (90 uM). In the assay with U87MG, the “inhibition of U87MG migration” value worked out at 63%.
